Key:
[1] = test system: differentiated adipocytes; assay: Glucose uptake by the adipocytes (2-NBDG glucose uptake assay kit) in microfluidic device; type: cell-based, human
Protocol: (§1) Cell Culture: In vitro model of the human inflamed adipose tissue (adipocyte/immune cell coculture): Prior to seeding the cells into the microfluidic device, the fluidic compartments underwent a sterilization process by filling them with 70% ethanol for a minimum of 4 hours. Afterward, the microfluidic devices were washed with deionized water, and each microfluidic device was loaded with 100 μL of Poly-L-lysine solution (0.1 mg/mL in H2O) and incubated overnight at 37° C. The microfluidic devices were then washed again, first with sterilized deionized water and then with phosphate-buffered saline (PBS). Next, the microfluidic devices were primed with a preadipocyte growth medium from (Cell Applications). […] Cell viability and morphological changes were monitored using a microscope. […] The concentrations of Tumor Necrosis Factor (TNFα) and Interleukin-6 (IL-6) in the supernatants were measured using an ELISA method. […] The percentage of calcein-AM-labeled cells was used to quantify cell viability. The growth and morphology of the cells were regularly monitored under the microscope. […] To assess cell differentiation of the adipocytes, the lipid content within adipocytes was monitored by staining the lipid droplets with Oil Red O (Sigma-Aldrich, St. Louis, MO, USA). […]

[2] = test system: Adipocytes and U937 cells; assay: Cytokine immunoassay (ELISA) of supernatants from adipocyte/immune cell co-culture in VasChip3x2 microfluidic device; type: cell-based, human; conditions: inflammation state induced with 100 ng/ml LPA
Protocol: as §1

| Substance | glucose uptake ([1]; adipocyte monoculture, after insulin treatment) | cytokine secretion (TNF and IL-6 in the supernatants) [2] | glucose uptake ([1]; adipocyte/U937 co-culture, inflammation state induced with 100 ng/ml LPA) |
| --- | --- | --- | --- |
| insulin | significant glucose uptake | – | – |
| lysophosphatidic acid [LPA] | – | significant increase | decrease |

From US12270016B1, “Structure and function of modular microfluidic device for in-vitro modeling of human organs” (Alfaisal University, priority 2024, dated 2025)
